Experimental data taken from patent US6878522B2, “Methods for the identification of compounds useful for the treatment of disease states mediated by prostaglandin D2” (priority 2000, dated 2005).

Legend:
guinea pig eyes = settings: topical, cited from earlier work; for microvascular leakage followed by conjunctival inflammation: 6-hour post challenge
[1] = system: isolated human eosinophils; assay: Chemotaxis of isolated human eosinophils; format: cell-based
Procedure: In a specific example of this method, a competitive assay is performed to test compounds for their ability to interrupt the attraction of CRTH2 cells to PGD2. In this method, test compounds are diluted into the bottom wells of the Boyden chemotaxis chamber. A constant amount of PGD2 is also added to this dilution series, at a concentration known to have a chemotactic effect on CRTH2 cells. As a control, at least one aliquot contains only PGD2. Cells expressing CRTH2 are resuspended at 3-3.5×10^6 cells/ml in RPMI 1640 supplemented with 10 mM HEPES and 1 mg/ml bovine serum albumin (Sigma, St. Louis, Mo.), and placed into the upper wells of the chamber. The chambers are incubated for 90-120 minutes at 37° C. in a humidified CO2 incubator. After the incubation period, the number of migrating cells on the lower surface of the membrane filter is counted using light microscopy. The contribution of the test compound to the chemotactic activity of PGD2 is measured by comparing the chemotactic activity of the aliquots containing only PGD2 with the activity of aliquots containing test compound and PGD2. If addition of the test compound to the PGD2 solution results in a […] in the number of cells detected on the lower surface of the membrane relative to the number of cells detected using a solution containing only PGD2, then there is identified an antagonist of PGD2 induction of chemotactic activity of cells expressing CRTH2. In contrast, if the addition of the test compound to the PGD2 solution results in a […] in the number of cells detected on the lower surface of the membrane (relative to the number of cells detected using a solution containing only PGD2), then an […] of PGD2 induction of chemotactic activity of cells expressing CRTH2 is identified.
The chemotactic response of human T lymphocytes to PGD2, murine MDC and murine mSDF was also assayed. Chemotaxis was determined using a 48-well Boyden chamber (Neuroprobe, Cabin John, Md.), and 3.0 μm polycarbonate filters. Cells were resuspended (3-3.5×10^6 cells/ml) in RPMI 1640 supplemented with 10 mM HEPES and 1 mg/ml bovine serum albumin (Sigma, St. Louis, Mo.), and placed into the upper wells of the chamber. The compound to be tested was placed in the lower wells. The chambers were incubated for 90-120 minutes at 37° C. in a humidified CO2 incubator. At the end of the incubation period, the number of migrating cells on the filter (expressed per high power field) were enumerated microscopically. […] In FIG. 4, the chemotactic response of human basophils to PGD2 and C5a is shown.

DP receptor = target: T1, DP receptor (Homo sapiens, UniProt Q13258); assay: Competition with 3H-PGD2 binding at the DP receptor (Examples 6-9); settings: control, cold PGD2, 7 trials
T1 sequence (Q13258 1-359): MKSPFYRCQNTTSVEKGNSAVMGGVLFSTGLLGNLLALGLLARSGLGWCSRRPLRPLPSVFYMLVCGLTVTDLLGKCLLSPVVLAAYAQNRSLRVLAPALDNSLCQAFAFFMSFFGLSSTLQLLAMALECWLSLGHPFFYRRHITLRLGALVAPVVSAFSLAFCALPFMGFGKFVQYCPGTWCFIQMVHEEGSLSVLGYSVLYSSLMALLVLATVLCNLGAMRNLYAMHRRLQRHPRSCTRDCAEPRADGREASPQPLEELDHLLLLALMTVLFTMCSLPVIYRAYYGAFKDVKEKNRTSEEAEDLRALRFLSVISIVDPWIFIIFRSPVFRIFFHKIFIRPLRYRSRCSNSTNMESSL
Procedure: To directly determine the binding affinity of CRTH2 for PGD2, the following binding assay was used. Transfected and parental 300-19 cells were washed twice at room temperature with assay buffer, and resuspended at a concentration of 2×10^7 cells/ml. Using a 96-well U-bottom polypropylene plate (Costar, Corning Inc., Acton, Mass.), the assay was set up as follows: 50 μl of vehicle (0.3% DMSO in assay buffer, total wells) or of […] cold PGD2 (NS wells); 50 μl cells (2×10^7 cells/ml for 10^6 cells per well); 50 μl 6 nM [3H]-PGD2. The plate was allowed to incubate for 20 min at RT before centrifugation (2800 rpm, Sorval RT6000, 5 min, 4° C.). The plate was harvested (Packard Unifilter plate GF/C, previously soaked in 3% PEI for at least 1 hr) with cold assay buffer using a Packard Filtermate Cell Harvester (6×150 μl buffer wash per well). The filterplate was dried overnight. After the addition of 50 μl scintillation fluid (Packard Microscint 0), the plate was counted in a Packard Topcount scintillation counter (1 min per well). […]
In the assay, the capacity of each D-ring compound to compete with binding of ^3H-PGD2 was measured at both the CRTH2 and DP receptors, and an IC50 value (in μM) was determined. […]

[2] = inhaled, asthmatics; cited from earlier work

For O=C(O)CCCCCCC1C(=O)NC(=O)N1CCC(O)C1CCCCC1 (centres unmarked) [BW-245C], the “microvascular leakage followed by conjunctival inflammation” value (guinea pig eyes) is listed as “BW-245C-insensitive”, the ocular hypotension (guinea pig eyes) is listed as “mimicked by BW-245C” and the EC50 [1] is listed as greater than 1000 nM.
For CCCCC[C@H](O)/C=C/[C@H]1C(=O)C[C@H](O)[C@@H]1C/C=C\CCCC(=O)O [PGD2, prostaglandin D2], the IC50 (DP receptor) is given as 23.4 nM, the “microvascular leakage followed by conjunctival inflammation” value (guinea pig eyes) is given as “microvascular leakage followed by conjunctival inflammation” and the ocular hypotension (guinea pig eyes) is given as “elicits ocular hypotension”. For the same compound, the EC50 [1] was 3 nM, the “bronchoconstriction potency relative to PGF2α” value [2] was 3.5 × and the “bronchoconstriction potency relative to histamine” value [2] was 30 ×.
Work on CCCCC[C@H](O)/C=C/[C@H]1[C@H](O)CC(=O)[C@@H]1C/C=C\CCCC(=O)O [PGE2] yielded an EC50 [1] greater than 100 nM.
CCCCC[C@H](O)/C=C/[C@@H]1[C@@H](C/C=C\CCCC(=O)O)[C@@H](O)C[C@H]1O [PGF2α] gave an EC50 [1] greater than 100 nM.
